Results on 8 compounds are retold here after ChEMBL document CHEMBL1138176, “Synthesis and structure-activity relationship of small-molecule malonyl coenzyme A decarboxylase inhibitors” (J Med Chem, 2006).

In general, Papp refers to the rate of passage across a membrane or cell layer, normalised by area and donor concentration. One may read the solubility as the concentration that dissolves in the medium under given conditions. High values mean a readily soluble substance, low ones a poorly soluble substance.

Converted amounts (≈) assume the structure as drawn. The source made the active and inactive calls. No cut-off for these calls is given here.

For data set [1], the target named is T1, Malonyl-CoA decarboxylase, mitochondrial (Homo sapiens, UniProt O95822).
T1 sequence (O95822 whole entry): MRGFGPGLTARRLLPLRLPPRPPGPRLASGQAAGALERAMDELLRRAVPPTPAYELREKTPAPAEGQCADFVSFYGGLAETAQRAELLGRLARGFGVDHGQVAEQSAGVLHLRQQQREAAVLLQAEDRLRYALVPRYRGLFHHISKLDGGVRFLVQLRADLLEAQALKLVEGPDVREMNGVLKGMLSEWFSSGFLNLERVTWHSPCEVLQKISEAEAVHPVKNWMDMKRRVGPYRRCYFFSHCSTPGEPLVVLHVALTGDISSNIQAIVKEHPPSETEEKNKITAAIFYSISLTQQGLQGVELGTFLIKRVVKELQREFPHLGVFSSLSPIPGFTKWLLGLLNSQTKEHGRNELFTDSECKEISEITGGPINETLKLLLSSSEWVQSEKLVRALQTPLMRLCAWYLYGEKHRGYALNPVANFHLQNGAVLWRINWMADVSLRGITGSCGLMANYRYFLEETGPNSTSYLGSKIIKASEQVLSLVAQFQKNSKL
Nature of the data set: Inhibition of MCD at 10 uM.

Data set [2] is described as follows: Caco-2 cell membrane permeability. The conditions noted are these: human.
The nature of data set [3]: Stability in rat liver microsomes at 5 uM.
The nature of data set [4]: Stability in human liver microsomes at 5 uM.
Data set [5] can be described thus: Solubility in PBS at pH 7.4.
For data set [6], the species on record is Sus scrofa. Description: Decrease in lactate production in ischemic pig heart. Format: functional, organism-based.

As to `CC(C)C(=O)Nc1ccc(C(O)(C(F)(F)F)C(F)(F)F)cc1`, in data set [1], the IC50 result is recorded as “Not Active”.
Still for that read-out and setting: then `O=C(Nc1ccccc1)Nc1ccc(C(O)(C(F)(F)F)C(F)(F)F)cc1`, with “Not Active”; and `O=C(Nc1ccc(C(O)(C(F)(F)F)C(F)(F)F)cc1)N1CCOCC1`, with “Not Active”.
Consider `CCN(C(=O)c1ccc(C#N)cc1)c1ccc(C(O)(C(F)(F)F)C(F)(F)F)cc1`, for which the Papp in data set [2] was 38.7 ×10⁻⁶ cm/s. In addition, the share remaining at 5 µM in data set [3] was 66%; in data set [4], 93%. Moreover, the solubility in data set [5] was 8.7 µM (≈ 3.62 µg/mL).
In the same order, the values of `CCN(C(=O)N1CCOCC1)c1ccc(C(O)(C(F)(F)F)C(F)(F)F)cc1` are 68.2 ×10⁻⁶ cm/s, 9%, 87% and 189 µM (≈ 75.8 µg/mL).
Consider `COC(=O)CCCCN(C(=O)N1CCOCC1)c1ccc(C(O)(C(F)(F)F)C(F)(F)F)cc1`, for which the result in data set [6] was Active.
As for `O=C(O)CCCCN(C(=O)N1CCOCC1)c1ccc(C(O)(C(F)(F)F)C(F)(F)F)cc1`, the share remaining at 5 µM in data set [3] was 108%; in data set [4], 99%. For the same compound, the solubility in data set [5] was 206 µM (≈ 97.1 µg/mL).
The compound `CCN(CCCCO)C(=O)N(CC)c1ccc(C(O)(C(F)(F)F)C(F)(F)F)cc1` came in with a Papp in data set [2] of 49.4 ×10⁻⁶ cm/s. In addition, the amount remaining at 5 µM in data set [3] is 7%; in data set [4], 51%. The same compound returned a solubility in data set [5] of 187 µM (≈ 80.6 µg/mL).
